Reference: patent US20240408114A1, “METHODS FOR PREVENTING AND TREATING ACUTE KIDNEY INJURY” (The Johns Hopkins University, priority 2021, published 2024)

Key:
splenic T cells = assay: Splenic T cell phenotypes in post-IRI mice; assay type: in vivo, mouse; details: vs vehicle
Procedure: T cell proliferation assessed with Ki67 expression was reduced in CD4^+ and CD8^+ T cells from JHU083 treated post-ischemic kidneys (Ki67^+, CD4^+ T cells 58.7±2.9 vs 50.6±2.1%, P=0.035; CD8^+ T cells, 61.2±4.2% vs 48.4±4.1%, P=0.043) (FIG. 15). […] We also studied immunophenotypes of splenic T cells from post-IRI mice.
KMNCs were isolated according to our previously described Percoll density gradient protocol. Ascon et al., 2006. Briefly, decapsulated kidneys were immersed and incubated in collagenase D (2 mg/mL; Sigma-Aldrich) solution for 30 min at 37° C. Samples were strained through 70 µm cell strainer (BD Bioscience, Franklin Lakes, NJ), washed, and resuspended in 40% Percoll (GE Healthcare, Chicago, IL) followed by gentle overlaying onto 80% Percoll. After centrifugation at 1,500 g for 30 min in brake off mode at room temperature, KMNCs were collected from interface between 40% and 80% Percoll. […] Cells were counted on hemocytometer using trypan blue exclusion under a microscope.
Cells were washed once with phosphate buffered saline (PBS) and stained with viability dye Zombie NIR Fixable Viability (BioLegend, San Diego, CA) for 15 min at room temperature. […] Samples were analyzed by 4-laser Aurora spectral flow cytometer (Cytek, Fremont, CA). […]

[1] = mouse, in vivo, ip, 1.83 mg/kg
Procedure: Glutamine antagonist, JHU083 was synthesized as previously described, Rais et al., 2016, and dissolved in 50 mM […] 4-(2-hydroxyethyl)-1-piperazineethanesulfonic acid (HEPES) buffered 0.9% saline. Aliquot stocks were stored at −80° C. and thawed right before injection. Before the IRI surgery or cisplatin injection, mice were administered 1.83 mg/kg JHU083 (equivalent to 1 mg/kg DON) or vehicle (50 mM HEPES buffered 0.9% saline) every other day via intraperitoneal injection. Following 4 consecutive dosages, mice underwent IRI surgery or cisplatin injection. The last additional dose was given at 24 h after IRI or cisplatin injection. This dosage regimen was chosen based on efficiency and toxicity data from a previous study. Hollinger et al., 2020.

kidney T cells = assay: In vitro kidney T cell proliferation (CFSE) under hypoxia/reoxygenation; assay type: cell-based, mouse; details: 1 μM JHU083, hypoxia followed by reoxygenation
Procedure: Glutamine blocking effect on the kidney T cell proliferation was assessed with carboxyfluoroscein succinimidyl ester (CFSE) analysis. FACS sorted kidney T cells (CD45^+, TCR αβ^+) were cultured with media containing 1 μM JHU083 or vehicle and underwent hypoxia followed by reoxygenation.
Kidney T cells were isolated using FACS. Briefly, single-cell suspension of KMNCs was preincubated with anti-CD16/CD32 Fc block (S17011E, BioLegend) stained in Cell Staining Buffer (BioLegend) with fluorochrome-labeled antibodies: APC-Cy7 anti-CD45 (30-F11) and BV421 anti-TCRβ ([…]) from BioLegend. Live Dead Aqua (Thermo Fisher Scientific) was stained for viability assay. […] TCRβ^+ cells were sorted with FACSAria II Cell Sorter (BD Bioscience). Splenic T cells were isolated from single cells suspension of spleens using a T Cell Isolation Kit II (Miltenyi Biotec, North Rhine-Westphalia, Germany) according to the manufacturer's guideline.
48-well flat-bottom plates were coated with 5-μg/mL anti-CD3 in PBS and incubated at 4° C. overnight. Anti-CD3 coated plates were washed with PBS, and isolated cells were cultured in RPMI 1640 GlutaMAX (Thermo Fisher Scientific) supplemented with 10% FBS (Thermo Fisher Scientific), […] HEPES buffer (Thermo Fisher Scientific), 100-μM non-essential amino acid solution (Sigma-Aldrich), and 55-μM 2-mercaptoethanol (Sigma-Aldrich)±JHU083. […]

With `CCOC(=O)[C@H](CCC(=O)C=[N+]=[N-])NC(=O)[C@@H](N)CC(C)C` [JHU083] the “immunophenotypes of splenic CD4+ and CD8+ T cells” value (splenic T cells) was “increased naïve phenotypes with low CD44 and high CD62L expression”, the body weight [1] was “no significant differences between groups” and the “cell numbers on day 3” value (kidney T cells) was “significantly lower”. For the same molecule, the “proportion of undivided cells (CFSE)” value (kidney T cells; P<0.001) was “significantly higher proportion of undivided cells”.
